One series deals with C57BL6 female mice. Description: Mating trial after doxorubicin with or without NMN co-treatment. Format: in vivo. The conditions noted are these: for Number of mating rounds required to achieve pregnancy: the values are: cumulative % of females pregnant by round. On the procedure:
Following oocyte counting and analysis of oocyte meiotic progression, as well as a separate cohort of animals for histological ovarian analysis, a separate cohort of animals were treated as indicated, and mated with stud males of proven track record, to assess the ability of animals to deliver live births following chemotherapy treatment in the presence of absence of NMN co-treatment.

Series [1] relates to oocytes. Kind of series: Meiotic progression (GVBD, PBE) of harvested oocytes, cisplatin with or without NMN. Format: in vivo, mice. To be noted: cisplatin and/or NMN. As for the experimental part:
Once harvested from ovaries, oocytes were stored in IBMX media to prevent progression into meiosis. Once released from IBMX, meiotic progression was assessed by the proportions of oocytes achieving germinal vesicle breakdown (GVBD) for meiosis I, and polar body extrusion (PBE) for meiosis II, with results shown in FIGS. 7 and 8 and Tables 2 and 3.
Again, as in Example 2 above, the oocytes which were harvested from these studies were allowed to progress down meiosis, in order to assess meiotic progression rates (FIGS. 16 and 17 and Table 7 and 8).

In the next series the test system is C57BL6 females. Kind of series: Reversal design: primordial follicle counts in ovarian histology sections. Format: in vivo, mice. To be noted: doxorubicin 10 mg/kg i.p., NMN in drinking water started four weeks later for 4 weeks; per mouse. An excerpt:
(§1) Ovaries were dissected from freshly euthanased animals, and preserved in 10% neutral buffered formalin for 24 hr, followed by 70% ethanol, until embedding in paraffin blocks. Blocks were sectioned on a microtome and subjected to haematoxylin and eosin (H&E) staining. Primordial follicles were manually counted by a blinded investigator.
Next, we decided to investigate whether NMN treatment delivered some time following chemotherapy treatment could actively reverse chemotherapy induced infertility. […] Four weeks later, they received NMN in their drinking water, for another 4 weeks, prior to being euthanased for either oocyte studies or ovarian histological analysis. The rationale of this experimental design is to investigate whether NMN has the ability to induce regeneration of the ovary. According to the standard dogma of reproductive biology, mammals are born with a set number of follicles which are slowly released as oocytes over the course of a lifetime, with the ovaries incapable of regenerating new follicles.

Series [2] deals with oocytes. Description: Spindle structure staining of oocytes from aged NMN treated mice. The class given is in vivo. The text has this:
(§2) To determine the impact of NMN on spindle assembly, oocytes from C57BL6 mice were next stained for spindle structure (FIG. 3F).
As with other sirtuins, SIRT2 is critically dependent for its activity on levels of its enzymatic co-factor NAD^+, which naturally declines with old age. We hypothesized that increasing NAD^+ availability during old age could restore SIRT2 activity, and recapitulate the improvements in fertility observed with old age during SIRT2 over-expression. To test this, non-genetically modified C57BL6 female mice were treated with the NAD^+ precursor nicotinamide mononucleotide (NMN), as in the Examples above. Mice were treated at 15 months of age, when mice normally experience ovarian failure (FIG. 34). Three weeks later, oocytes were harvested, and analysed for spindle structure (FIG. 35).

The subject of the next series is ovaries. Kind of series: Histological analysis of ovaries from NMN treated females. The class given is in vivo, mice.
Description: as §1, §2

The next series deals with C57BL6 mice. Kind of series: Breeding trial with NMN in drinking water. The conditions noted are these: NMN 2 g/L drinking water. The class given is in vivo. An excerpt:
FIG. 4. A) is a graph showing litter size. C57BL6 mice were maintained on normal drinking water supplemented with or without NMN (2 g/L) from 2 months of age. From 4 months of age, animals were timed mated with proven stud male C57BL6. Pregnancy was confirmed using micro-ultrasound for the presence of a foetal heartbeat, and the number of pups born in subsequent litters recorded. B) is a graph showing body weights of pups from breeding trials at 12 days of age.
To determine whether NMN treatment could improve overall, functional fertility, we conducted a breeding trial in C57BL6 mice. Both pregnancy success rates and litter size (FIG. 4A) were improved in animals that received NMN, further confirming the importance of this mechanism to female fertility. Offspring from females that received NMN treatment developed at a similar rate to offspring from untreated females, even after challenging with high fat feeding (FIG. 5A and 5B).

The next series concerns oocytes / blastocysts. Kind of series: IVF of oocytes from 8 month old NMN treated mice: blastocyst formation and inner cell mass. The class given is in vivo. On the procedure: In addition, the length of treatment with NAD raising compounds (e.g. NMN) positively correlates with improved fertility. Eight month old ex-breeder C57BL6 female mice, which are at an age of declining natural fertility, were treated with NMN through addition to drinking water (2 g/L) for 48 hours, 1 week, 2 weeks, and 4 weeks (6 per group). Animals were then treated with PMSG and then hCG to promote oocyte maturation and ovulation. MII stage oocytes were collected from the oviduct, and fertilized in vitro. Oocytes were then cultured into blastocysts for the next 6 days, at which point these blastocysts were subjected to differential staining to assess blastocyst cell number in either the inner cell mass or the trophectoderm. Inner cell mass cell number is accepted as an important predictor of implantation success rates.
This was measured through performing IVF in oocytes obtained from 8 month old C57BL6 ex-breeder female mice, which were assigned to the following 4 groups (6 per group) . . . • Daily oral gavage, saline control, normal drinking water • Daily oral gavage, 10 mg NMN in saline, normal drinking water • No gavage, normal (control) drinking water • No gavage, NMN in drinking water (2 g/L)
These animals were at an age at which fertility normally declines in this species. Animals were maintained on each of the above treatments for 10 days. Animals were then treated with PMSG and then hCG to promote oocyte maturation and ovulation. MII stage oocytes were collected from the oviduct, and fertilized in vitro. Oocytes were then cultured into blastocysts for the next 6 days, and blastocyst formation rates were assessed. Results at days 5 and six are shown in FIGS. 38 and 39, respectively. Blastocyst formation and hatching were assessed as indicators of developmental competence. Blastocyst formation is a clinically relevant outcome: during clinical IVF, blastocyst stage and hatching blastocyst stage embryos are preferentially transferred over earlier stage embryos into a person wishing to obtain a pregnancy.

“And” between values parts separate entries of the source, which are not always exact repeats. Equal values may be shown once.

Turning to `NC(=O)c1ccc[n+]([C@@H]2O[C@H](COP(=O)([O-])O)[C@@H](O)[C@H]2O)c1` [NMN, nicotinamide mononucleotide], the Number of mating rounds required to achieve pregnancy with C57BL6 female mice (Round 0) is 0%; in the series on C57BL6 female mice (Round 1), 60%; with C57BL6 female mice (Round 2), 80%; with C57BL6 female mice (Round 3), 88%. Moreover, the “Body weight of pups born to females receiving NMN” value with C57BL6 female mice (day 12 of age) is on record as “no difference in body weight”. Further, the “Proportion of harvested oocytes achieving germinal vesicle breakdown” value with oocytes [1] (1 h after release from IBMX) was 45 % of total; in the series with oocytes [1] (2 h after release from IBMX) it was 83 % of total. The results for the “Proportion of harvested oocytes achieving polar body extrusion” value in the series with oocytes [1] (14 hr following completion of GVBD), in the series on oocytes [1] (16 hr following completion of GVBD) and in the series with oocytes [1] (20 hr following completion of GVBD) were 48 % of total, 60 % of total and 91 % of total, respectively. Besides, the “Primordial follicle numbers in ovarian histology sections” value in the series on C57BL6 females was 108 and 86 and 94 and 78. Also, the “Spindle structure in oocytes” value in the series on oocytes [2] (15 month old C57BL6 females, NMN 3 weeks) is “reverse severe spindle defects”. In addition, the “Spindle and chromosome arrangement in oocytes” value in the series with oocytes [2] (aged C57BL6 females, NMN 2 g/L drinking water, 4 weeks) is “bi-polar, barrel-shaped arrangement with well-aligned chromosomes”. Further, the “Oogonial reserve, histological analysis of ovaries” value in the series with ovaries is “improved oogonial reserve”. Moreover, the Litter size result in the series with C57BL6 mice was “improved”. Further, the Pregnancy success rates entry in the series with C57BL6 mice is listed as “improved”. Also, the “Efficacy on blastocyst formation after IVF: drinking water versus single daily oral gavage” value in the series with oocytes / blastocysts (8 month old C57BL6, NMN 2 g/L drinking water versus 10 mg daily gavage, 10 days) is “better efficacy”. For the same molecule, the “Efficacy versus length of NMN administration (inner cell mass cell number of blastocysts)” value with oocytes / blastocysts (NMN 2 g/L drinking water for 48 hours, 1, 2, 4 weeks) is on record as “time dependent increase in efficacy”. The “Ability of oocytes to form blastocysts following fertilisation in vitro” value in the series with oocytes / blastocysts (oocytes from NMN treated versus untreated mice) is recorded as “enhanced ability to form blastocysts”.

Values taken from US20200368198A1, “METHODS FOR INCREASING FERTILITY” (NEWSOUTH INNOVATIONS PTY LIMITED, priority 2017, published 2020).
